Measurements published in ChEMBL document CHEMBL1201862, “PubChem BioAssay data set” (2004).
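Grown in 96-well plates, cells were treated for 48 hours with each compound at five concentrations. Insufficient inhibition: endpoint recorded as highest concentration tested. Here, GI50 denotes the concentration required for 50% inhibition of growth.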 Calls of active or inactive are those of the source. Cut-off read from the data, not from the text of the source: active = GI50 up to about 1.1 µM and inactive = higher.

What was measured:
Assay in all cases: NCI tumour cell line growth inhibition, 48 h
[1] = system: 786-0
[2] = system: A498
[3] = system: A549
[4] = system: ACHN
[5] = system: CAKI-1
[6] = system: CCRF-CEM
[7] = system: COLO 205
[8] = system: DU-145
[9] = system: EKVX
[10] = system: HCC 2998
[11] = system: HCT-116
[12] = system: HCT-15
[13] = system: HL-60
[14] = system: HOP-62
[15] = system: HOP-92
[16] = system: HT-29
[17] = system: Hs-578T
[18] = system: IGROV-1
[19] = system: K562
[20] = system: KM12
[21] = system: LOX IMVI
[22] = system: M14
[23] = system: MCF7
[24] = system: MDA-MB-231
[25] = system: MDA-MB-435
[26] = system: MDA-N
[27] = system: MOLT-4
[28] = system: NCI-H226
[29] = system: NCI-H23
[30] = system: NCI-H460
[31] = system: NCI-H522
[32] = system: NCI/ADR-RES
[33] = system: OVCAR-3
[34] = system: OVCAR-5
[35] = system: OVCAR-8
[36] = system: PC-3
[37] = system: RPMI-8226
[38] = system: RXF 393
[39] = system: SF-268
[40] = system: SF-295
[41] = system: SF-539
[42] = system: SK-MEL-28
[43] = system: SK-MEL-5
[44] = system: SK-OV-3
[45] = system: SN12C
[46] = system: SNB-75
[47] = system: SR
[48] = system: SW-620
[49] = system: T47D
[50] = system: TK-10
[51] = system: U-251
[52] = system: UACC-257
[53] = system: UACC-62
[54] = system: UO-31
[55] = system: Malme-3M
[56] = system: OVCAR-4
[57] = system: SK-MEL-2
[58] = system: SNB-19

Structure (SMILES): COCc1cc2c(cc1/C=C/[N+](=O)[O-])OCO2
- GI50 [1]: 16.9 µM (inactive)
- GI50 [2]: 17 µM (inactive)
- GI50 [3]: 17.1 µM (inactive)
- GI50 [4]: 17.1 µM (inactive)
- GI50 [5]: 19.6 µM (inactive)
- GI50 [6]: 1.62 µM (inactive)
- GI50 [7]: 18.2 µM (inactive)
- GI50 [8]: 19.4 µM (inactive)
- GI50 [9]: 17.8 µM (inactive)
- GI50 [10]: 17.5 µM (inactive)
- GI50 [11]: 17.9 µM (inactive)
- GI50 [12]: 19.7 µM
- GI50 [13]: 23.4 µM (inactive)
- GI50 [14]: 20.7 µM (inactive)
- GI50 [15]: 18.8 µM (inactive)
- GI50 [16]: 18.5 µM (inactive)
- GI50 [17]: 19.5 µM (inactive)
- GI50 [18]: 22.8 µM (inactive)
- GI50 [19]: > 100 µM (inactive)
- GI50 [20]: 20.8 µM (inactive)
- GI50 [21]: 27.5 µM (inactive)
- GI50 [22]: 16.7 µM (inactive)
- GI50 [23]: 29.7 µM (inactive)
- GI50 [24]: 20.4 µM (inactive)
- GI50 [25]: 18.3 µM (inactive)
- GI50 [26]: 17.7 µM (inactive)
- GI50 [27]: > 100 µM (inactive)
- GI50 [28]: 19.8 µM (inactive)
- GI50 [29]: 27.4 µM (inactive)
- GI50 [30]: 17.7 µM (inactive)
- GI50 [31]: 19.2 µM (inactive)
- GI50 [32]: 25.2 µM (inactive)
- GI50 [33]: 19.4 µM (inactive)
- GI50 [34]: 16.4 µM (inactive)
- GI50 [35]: 23 µM (inactive)
- GI50 [36]: 12.1 µM (inactive)
- GI50 [37]: 76 µM (inactive)
- GI50 [38]: 18 µM (inactive)
- GI50 [39]: 20.7 µM (inactive)
- GI50 [40]: 21.6 µM (inactive)
- GI50 [41]: 20.7 µM (inactive)
- GI50 [42]: 11 µM (inactive)
- GI50 [43]: 19.4 µM (inactive)
- GI50 [44]: 17.9 µM (inactive)
- GI50 [45]: 18.5 µM (inactive)
- GI50 [46]: 17.9 µM (inactive)
- GI50 [47]: 53.3 µM (inactive)
- GI50 [48]: 17.7 µM (inactive)
- GI50 [49]: 21.1 µM (inactive)
- GI50 [50]: 16.9 µM (inactive)
- GI50 [51]: 17.7 µM (inactive)
- GI50 [52]: 16.8 µM (inactive)
- GI50 [53]: 17.9 µM (inactive)
- GI50 [54]: 17 µM (inactive)

Structure (SMILES): COc1ccc(Cc2c(-c3ccc(C)cc3)n[nH]c(=O)c2C2C(=O)N(c3ccccc3)N=C2c2ccccc2)cc1 (stereo not given)
- GI50 [1]: 35.7 µM (inactive)
- GI50 [2]: 30.2 µM (inactive)
- GI50 [3]: 31.4 µM (inactive)
- GI50 [4]: 30.9 µM (inactive)
- GI50 [5]: 37.1 µM (inactive)
- GI50 [6]: 32.2 µM (inactive)
- GI50 [7]: 20.7 µM (inactive)
- GI50 [8]: 43.7 µM (inactive)
- GI50 [9]: 26.8 µM (inactive)
- GI50 [10]: 27.6 µM (inactive)
- GI50 [11]: 21.8 µM (inactive)
- GI50 [12]: 42.9 µM
- GI50 [13]: 39.3 µM (inactive)
- GI50 [14]: 40.1 µM (inactive)
- GI50 [15]: 28 µM (inactive)
- GI50 [16]: 31.7 µM (inactive)
- GI50 [17]: 31.6 µM (inactive)
- GI50 [18]: 32.1 µM (inactive)
- GI50 [19]: 28 µM (inactive)
- GI50 [20]: 22.3 µM (inactive)
- GI50 [21]: 20.6 µM (inactive)
- GI50 [22]: 26.9 µM (inactive)
- GI50 [23]: 44.5 µM (inactive)
- GI50 [24]: 35.6 µM (inactive)
- GI50 [25]: 20.3 µM (inactive)
- GI50 [26]: 24.4 µM (inactive)
- GI50 [27]: 23.1 µM (inactive)
- GI50 [55]: 24.1 µM (inactive)
- GI50 [28]: 29.4 µM (inactive)
- GI50 [29]: 25.8 µM (inactive)
- GI50 [30]: 30.5 µM (inactive)
- GI50 [31]: 44.3 µM (inactive)
- GI50 [32]: 25.1 µM (inactive)
- GI50 [33]: 19 µM (inactive)
- GI50 [56]: 48.2 µM (inactive)
- GI50 [34]: 33 µM (inactive)
- GI50 [35]: 30.3 µM (inactive)
- GI50 [36]: 26.7 µM (inactive)
- GI50 [37]: 42 µM (inactive)
- GI50 [38]: 26.7 µM (inactive)
- GI50 [39]: 38.9 µM (inactive)
- GI50 [40]: 24.3 µM (inactive)
- GI50 [41]: 25.1 µM (inactive)
- GI50 [42]: 33 µM (inactive)
- GI50 [57]: 21.9 µM (inactive)
- GI50 [43]: 20.7 µM (inactive)
- GI50 [44]: 52.8 µM (inactive)
- GI50 [45]: 30.9 µM (inactive)
- GI50 [58]: 36.1 µM (inactive)
- GI50 [46]: 23.9 µM (inactive)
- GI50 [47]: 37.1 µM (inactive)
- GI50 [48]: 37.7 µM (inactive)
- GI50 [49]: > 65.6 µM (inactive)
- GI50 [50]: 29.2 µM (inactive)
- GI50 [51]: 34.8 µM (inactive)
- GI50 [52]: 29.3 µM (inactive)
- GI50 [53]: 20 µM (inactive)
- GI50 [54]: 39.7 µM (inactive)

Structure (SMILES): OCCN(CCO)c1nc(N2CCCCC2)c2nc(N(CCO)CCO)nc(N3CCCCC3)c2n1 [DIPYRIDAMOLE]
- GI50 [1]: 31.9 µM (inactive)
- GI50 [3]: 38.5 µM (inactive)
- GI50 [4]: 33.9 µM (inactive)
- GI50 [5]: 45.5 µM (inactive)
- GI50 [6]: 20 µM (inactive)
- GI50 [7]: 41.9 µM (inactive)
- GI50 [8]: 48.8 µM (inactive)
- GI50 [9]: 25.6 µM (inactive)
- GI50 [10]: 16.3 µM (inactive)
- GI50 [11]: 40.3 µM (inactive)
- GI50 [12]: 31.4 µM
- GI50 [13]: 15.7 µM (inactive)
- GI50 [14]: 29 µM (inactive)
- GI50 [15]: 12.1 µM (inactive)
- GI50 [16]: 19.5 µM (inactive)
- GI50 [17]: 31.8 µM (inactive)
- GI50 [18]: 66.7 µM (inactive)
- GI50 [19]: 24.8 µM (inactive)
- GI50 [20]: 43 µM (inactive)
- GI50 [21]: 37 µM (inactive)
- GI50 [22]: 55.8 µM (inactive)
- GI50 [23]: > 10 µM (inactive)
- GI50 [24]: 43.3 µM (inactive)
- GI50 [25]: 69.7 µM (inactive)
- GI50 [26]: 45.8 µM (inactive)
- GI50 [27]: 24.4 µM (inactive)
- GI50 [55]: 20.5 µM (inactive)
- GI50 [28]: 48.9 µM (inactive)
- GI50 [29]: 65.3 µM (inactive)
- GI50 [30]: 28 µM (inactive)
- GI50 [31]: 17.9 µM (inactive)
- GI50 [32]: 22 µM (inactive)
- GI50 [33]: 12.4 µM (inactive)
- GI50 [56]: 59.4 µM (inactive)
- GI50 [34]: 90.8 µM (inactive)
- GI50 [35]: 29.2 µM (inactive)
- GI50 [36]: 33.3 µM (inactive)
- GI50 [37]: > 10 µM (inactive)
- GI50 [42]: 43 µM (inactive)
- GI50 [57]: 34.6 µM (inactive)
- GI50 [43]: 21.6 µM (inactive)
- GI50 [45]: 34 µM (inactive)
- GI50 [47]: 3.46 µM (inactive)
- GI50 [48]: 58.3 µM (inactive)
- GI50 [49]: 35.6 µM (inactive)
- GI50 [50]: 17.1 µM (inactive)
- GI50 [52]: 39.3 µM (inactive)
- GI50 [54]: 33 µM (inactive)
